# Measured values: the supplement of paper PMC10307832
# Key:
# Experiment in all cases: relative viability (nuclei count vs DMSO), 5 days (fraction); higher = more cells survive
# Ispinesib + Trametinib = compound: Cc1ccc(C(=O)N(CCCN)[C@@H](c2nc3cc(Cl)ccc3c(=O)n2Cc2ccccc2)C(C)C)cc1 [Ispinesib] + CC(=O)Nc1cccc(-n2c(=O)n(C3CC3)c(=O)c3c(Nc4ccc(I)cc4F)n(C)c(=O)c(C)c32)c1 [Trametinib] (partner 0.02 µM)
# How it was run: (§1)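 A single step with final 0.05% Triton X-100, 1% formaldehyde and 1 ug/ml Hoechst fixed the cells and stained nuclei 5 days after treatment. Lung cancer cell lines in 1536-well plates had been treated by pin tool the day after seeding with one drug alone or a fixed anchor-drug dose plus five library-drug doses (not always all listed) in √10 steps, and nuclei were counted on 4× images. Relative viability is the ratio of nuclei in treated wells to nuclei in vehicle wells, taken as the median of duplicate plates.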
# Ispinesib + OSI-027 = compound: Cc1ccc(C(=O)N(CCCN)[C@@H](c2nc3cc(Cl)ccc3c(=O)n2Cc2ccccc2)C(C)C)cc1 [Ispinesib] + COc1cccc2cc(-c3nc([C@H]4CC[C@H](C(=O)O)CC4)n4ncnc(N)c34)[nH]c12 [OSI-027] (partner 0.5 µM)
# How it was run: as §1
# Linsitinib + Trametinib = compound: C[C@]1(O)C[C@@H](c2nc(-c3ccc4ccc(-c5ccccc5)nc4c3)c3c(N)nccn32)C1 [Linsitinib] + CC(=O)Nc1cccc(-n2c(=O)n(C3CC3)c(=O)c3c(Nc4ccc(I)cc4F)n(C)c(=O)c(C)c32)c1 [Trametinib] (partner 0.02 µM)
# How it was run: as §1
# Ispinesib + AZD7762 = compound: Cc1ccc(C(=O)N(CCCN)[C@@H](c2nc3cc(Cl)ccc3c(=O)n2Cc2ccccc2)C(C)C)cc1 [Ispinesib] + NC(=O)Nc1cc(-c2cccc(F)c2)sc1C(=O)N[C@H]1CCCNC1 [AZD7762] (partner 0.2 µM)
# How it was run: as §1
cell line,measurement,setting,value
HCC-78,relative viability,Ispinesib + Trametinib; first compound 0.001 µM,1.04
same,relative viability,Ispinesib + Trametinib; first compound 0.003162 µM,0.869
same,relative viability,Ispinesib + Trametinib; first compound 0.01 µM,1.2
same,relative viability,Ispinesib + Trametinib; first compound 0.03162 µM,0.493
same,relative viability,Ispinesib + Trametinib; first compound 0.1 µM,0.513
same,relative viability,Ispinesib + OSI-027; first compound 0.001 µM,0.439
same,relative viability,Ispinesib + OSI-027; first compound 0.003162 µM,0.448
same,relative viability,Ispinesib + OSI-027; first compound 0.01 µM,0.368
same,relative viability,Ispinesib + OSI-027; first compound 0.03162 µM,0.345
same,relative viability,Ispinesib + OSI-027; first compound 0.1 µM,0.318
same,relative viability,Linsitinib + Trametinib; first compound 0.03162 µM,0.913
same,relative viability,Linsitinib + Trametinib; first compound 0.1 µM,0.698
same,relative viability,Linsitinib + Trametinib; first compound 0.3162 µM,0.736
same,relative viability,Linsitinib + Trametinib; first compound 1 µM,0.578
same,relative viability,Ispinesib + AZD7762; first compound 0.001 µM,0.691
same,relative viability,Ispinesib + AZD7762; first compound 0.003162 µM,0.592
same,relative viability,Ispinesib + AZD7762; first compound 0.01 µM,0.532
same,relative viability,Ispinesib + AZD7762; first compound 0.03162 µM,0.526
same,relative viability,Ispinesib + AZD7762; first compound 0.1 µM,0.422
NCI-H1666,relative viability,Ispinesib + Trametinib; first compound 0.001 µM,0.934
same,relative viability,Ispinesib + Trametinib; first compound 0.003162 µM,0.864
same,relative viability,Ispinesib + Trametinib; first compound 0.01 µM,0.788
same,relative viability,Ispinesib + Trametinib; first compound 0.03162 µM,0.858
same,relative viability,Ispinesib + Trametinib; first compound 0.1 µM,0.604
same,relative viability,Ispinesib + OSI-027; first compound 0.001 µM,0.749
same,relative viability,Ispinesib + OSI-027; first compound 0.003162 µM,0.889
same,relative viability,Ispinesib + OSI-027; first compound 0.01 µM,0.864
same,relative viability,Ispinesib + OSI-027; first compound 0.03162 µM,0.712
same,relative viability,Ispinesib + OSI-027; first compound 0.1 µM,0.476
same,relative viability,Linsitinib + Trametinib; first compound 0.01 µM,0.8
same,relative viability,Linsitinib + Trametinib; first compound 0.03162 µM,0.907
same,relative viability,Linsitinib + Trametinib; first compound 0.1 µM,0.904
same,relative viability,Linsitinib + Trametinib; first compound 0.3162 µM,0.644
same,relative viability,Linsitinib + Trametinib; first compound 1 µM,0.594
same,relative viability,Ispinesib + AZD7762; first compound 0.001 µM,0.872
same,relative viability,Ispinesib + AZD7762; first compound 0.003162 µM,0.922
same,relative viability,Ispinesib + AZD7762; first compound 0.01 µM,0.898
same,relative viability,Ispinesib + AZD7762; first compound 0.03162 µM,0.699
same,relative viability,Ispinesib + AZD7762; first compound 0.1 µM,0.641
LU99A,relative viability,Ispinesib + Trametinib; first compound 0.001 µM,0.514
same,relative viability,Ispinesib + Trametinib; first compound 0.003162 µM,0.579
same,relative viability,Ispinesib + Trametinib; first compound 0.01 µM,0.577
same,relative viability,Ispinesib + Trametinib; first compound 0.03162 µM,0.335
same,relative viability,Ispinesib + Trametinib; first compound 0.1 µM,0.352
same,relative viability,Ispinesib + OSI-027; first compound 0.001 µM,0.268
same,relative viability,Ispinesib + OSI-027; first compound 0.003162 µM,0.294
same,relative viability,Ispinesib + OSI-027; first compound 0.01 µM,0.299
same,relative viability,Ispinesib + OSI-027; first compound 0.03162 µM,0.264
same,relative viability,Ispinesib + OSI-027; first compound 0.1 µM,0.189
same,relative viability,Linsitinib + Trametinib; first compound 0.01 µM,0.524
same,relative viability,Linsitinib + Trametinib; first compound 0.03162 µM,0.602
same,relative viability,Linsitinib + Trametinib; first compound 0.1 µM,0.528
same,relative viability,Linsitinib + Trametinib; first compound 1 µM,0.493
same,relative viability,Ispinesib + AZD7762; first compound 0.001 µM,0.474
same,relative viability,Ispinesib + AZD7762; first compound 0.003162 µM,0.368
same,relative viability,Ispinesib + AZD7762; first compound 0.01 µM,0.394
same,relative viability,Ispinesib + AZD7762; first compound 0.03162 µM,0.161
same,relative viability,Ispinesib + AZD7762; first compound 0.1 µM,0.14
NCI-H596,relative viability,Ispinesib + Trametinib; first compound 0.001 µM,0.745
same,relative viability,Ispinesib + Trametinib; first compound 0.003162 µM,0.876
same,relative viability,Ispinesib + Trametinib; first compound 0.01 µM,0.799
same,relative viability,Ispinesib + Trametinib; first compound 0.03162 µM,0.83
same,relative viability,Ispinesib + Trametinib; first compound 0.1 µM,0.706
same,relative viability,Ispinesib + OSI-027; first compound 0.001 µM,0.818
same,relative viability,Ispinesib + OSI-027; first compound 0.003162 µM,0.674
same,relative viability,Ispinesib + OSI-027; first compound 0.01 µM,0.951
same,relative viability,Ispinesib + OSI-027; first compound 0.03162 µM,0.625
same,relative viability,Ispinesib + OSI-027; first compound 0.1 µM,0.29
same,relative viability,Linsitinib + Trametinib; first compound 0.01 µM,0.705
same,relative viability,Linsitinib + Trametinib; first compound 0.03162 µM,0.715
same,relative viability,Linsitinib + Trametinib; first compound 0.1 µM,0.74
same,relative viability,Linsitinib + Trametinib; first compound 0.3162 µM,0.827
same,relative viability,Linsitinib + Trametinib; first compound 1 µM,0.732
same,relative viability,Ispinesib + AZD7762; first compound 0.001 µM,1.2
same,relative viability,Ispinesib + AZD7762; first compound 0.003162 µM,0.683
same,relative viability,Ispinesib + AZD7762; first compound 0.01 µM,1.19
same,relative viability,Ispinesib + AZD7762; first compound 0.03162 µM,1.15
same,relative viability,Ispinesib + AZD7762; first compound 0.1 µM,0.423
201T,relative viability,Ispinesib + Trametinib; first compound 0.001 µM,0.743
same,relative viability,Ispinesib + Trametinib; first compound 0.003162 µM,0.75
same,relative viability,Ispinesib + Trametinib; first compound 0.01 µM,0.729
same,relative viability,Ispinesib + Trametinib; first compound 0.03162 µM,0.692
same,relative viability,Ispinesib + Trametinib; first compound 0.1 µM,0.678
same,relative viability,Ispinesib + OSI-027; first compound 0.001 µM,0.828
same,relative viability,Ispinesib + OSI-027; first compound 0.003162 µM,0.952
same,relative viability,Ispinesib + OSI-027; first compound 0.01 µM,0.834
same,relative viability,Ispinesib + OSI-027; first compound 0.03162 µM,0.56
same,relative viability,Ispinesib + OSI-027; first compound 0.1 µM,0.181
same,relative viability,Linsitinib + Trametinib; first compound 0.01 µM,0.7
same,relative viability,Linsitinib + Trametinib; first compound 0.03162 µM,0.736
same,relative viability,Linsitinib + Trametinib; first compound 0.1 µM,0.702
same,relative viability,Linsitinib + Trametinib; first compound 0.3162 µM,0.72
same,relative viability,Linsitinib + Trametinib; first compound 1 µM,0.753
same,relative viability,Ispinesib + AZD7762; first compound 0.001 µM,0.662
same,relative viability,Ispinesib + AZD7762; first compound 0.003162 µM,0.521
same,relative viability,Ispinesib + AZD7762; first compound 0.01 µM,0.643
same,relative viability,Ispinesib + AZD7762; first compound 0.03162 µM,0.65
same,relative viability,Ispinesib + AZD7762; first compound 0.1 µM,0.309
HCC-15,relative viability,Ispinesib + Trametinib; first compound 0.001 µM,0.262
same,relative viability,Ispinesib + Trametinib; first compound 0.003162 µM,0.42
same,relative viability,Ispinesib + Trametinib; first compound 0.01 µM,0.422
same,relative viability,Ispinesib + Trametinib; first compound 0.03162 µM,0.381
same,relative viability,Ispinesib + Trametinib; first compound 0.1 µM,0.296
same,relative viability,Ispinesib + OSI-027; first compound 0.001 µM,0.773
same,relative viability,Ispinesib + OSI-027; first compound 0.003162 µM,0.715
same,relative viability,Ispinesib + OSI-027; first compound 0.01 µM,0.771
same,relative viability,Ispinesib + OSI-027; first compound 0.03162 µM,0.203
same,relative viability,Ispinesib + OSI-027; first compound 0.1 µM,0.178
same,relative viability,Linsitinib + Trametinib; first compound 0.01 µM,0.376
same,relative viability,Linsitinib + Trametinib; first compound 0.03162 µM,0.376
same,relative viability,Linsitinib + Trametinib; first compound 0.1 µM,0.286
same,relative viability,Linsitinib + Trametinib; first compound 0.3162 µM,0.264
same,relative viability,Linsitinib + Trametinib; first compound 1 µM,0.287
same,relative viability,Ispinesib + AZD7762; first compound 0.001 µM,1.26
same,relative viability,Ispinesib + AZD7762; first compound 0.003162 µM,1.33
same,relative viability,Ispinesib + AZD7762; first compound 0.01 µM,1.34
same,relative viability,Ispinesib + AZD7762; first compound 0.03162 µM,0.902
same,relative viability,Ispinesib + AZD7762; first compound 0.1 µM,0.154
